Assay results published in paper PMC3931646, “A Cyclic Nucleotide-Gated Channel Mutation Associated with Canine Daylight Blindness Provides Insight into a Role for the S2 Segment Tri-Asp motif in Channel Biogenesis” (PLoS ONE, 2014).

Legend:
[1] = molecular target: T1, cA3+ hB3 (Canis lupus familiaris; Homo sapiens, UniProt A0A068LEV2+Q9NQW8); assay: inside-out patch electrophysiology, current block; format: biochemical; conditions: 25 µM; channel block; 25 µM L-cis-diltiazem with 100 µM cGMP, -60 mV, 120 mM NaCl, EDTA/EGTA, pH 7.4, room temperature
T1 construct: gene CNGA3; inter-species heterotetramer: canine CNGA3 with C-terminal YFP co-expressed with untagged human CNGB3 (pcDNA3.1) in tSA201 cells; stoichiometry debated (2:2 or 3:1)
T1 sequence (A0A068LEV2 1-708): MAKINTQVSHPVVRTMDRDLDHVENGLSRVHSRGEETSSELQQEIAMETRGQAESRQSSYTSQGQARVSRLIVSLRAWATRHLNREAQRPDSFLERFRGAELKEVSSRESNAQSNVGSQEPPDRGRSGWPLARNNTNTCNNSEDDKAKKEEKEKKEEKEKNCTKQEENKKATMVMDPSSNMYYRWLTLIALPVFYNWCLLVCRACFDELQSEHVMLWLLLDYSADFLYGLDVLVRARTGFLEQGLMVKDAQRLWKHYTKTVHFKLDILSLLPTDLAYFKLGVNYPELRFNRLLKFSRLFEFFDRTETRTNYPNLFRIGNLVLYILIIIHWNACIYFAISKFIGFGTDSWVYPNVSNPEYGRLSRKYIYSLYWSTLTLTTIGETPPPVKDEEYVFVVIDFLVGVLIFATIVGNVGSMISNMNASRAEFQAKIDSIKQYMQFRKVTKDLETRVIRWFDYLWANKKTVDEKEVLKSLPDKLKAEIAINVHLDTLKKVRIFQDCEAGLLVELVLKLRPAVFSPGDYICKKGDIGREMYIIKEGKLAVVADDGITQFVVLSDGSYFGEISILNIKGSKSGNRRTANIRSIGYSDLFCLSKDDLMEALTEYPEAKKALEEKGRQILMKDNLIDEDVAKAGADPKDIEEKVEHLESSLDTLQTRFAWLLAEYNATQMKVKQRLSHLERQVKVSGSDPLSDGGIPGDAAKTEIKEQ
T1 sequence (Q9NQW8 1-809): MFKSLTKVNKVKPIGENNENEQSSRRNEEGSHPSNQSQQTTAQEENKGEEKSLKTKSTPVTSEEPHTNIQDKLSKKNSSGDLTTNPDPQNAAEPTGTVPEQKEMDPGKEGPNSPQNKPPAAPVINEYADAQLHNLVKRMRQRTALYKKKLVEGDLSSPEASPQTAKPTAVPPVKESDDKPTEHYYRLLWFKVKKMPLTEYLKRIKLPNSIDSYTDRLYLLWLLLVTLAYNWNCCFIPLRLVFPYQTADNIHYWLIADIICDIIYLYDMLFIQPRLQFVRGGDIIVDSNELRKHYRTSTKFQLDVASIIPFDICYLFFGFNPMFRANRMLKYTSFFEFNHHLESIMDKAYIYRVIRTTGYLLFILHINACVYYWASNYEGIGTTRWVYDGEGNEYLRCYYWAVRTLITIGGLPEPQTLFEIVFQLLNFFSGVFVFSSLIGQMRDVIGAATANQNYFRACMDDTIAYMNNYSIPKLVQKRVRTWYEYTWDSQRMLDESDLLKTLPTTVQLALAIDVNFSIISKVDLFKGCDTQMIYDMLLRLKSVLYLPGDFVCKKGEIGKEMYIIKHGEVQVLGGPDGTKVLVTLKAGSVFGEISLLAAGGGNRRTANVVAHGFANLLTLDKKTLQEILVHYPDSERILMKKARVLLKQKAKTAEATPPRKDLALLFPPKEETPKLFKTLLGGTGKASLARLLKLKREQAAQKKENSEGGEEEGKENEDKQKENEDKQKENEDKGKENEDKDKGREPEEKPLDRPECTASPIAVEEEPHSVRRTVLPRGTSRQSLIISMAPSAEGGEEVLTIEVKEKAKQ
Description: inside-out patch electrophysiology, current block on cA3+ hB3

[2] = molecular target: T2, cA3 (Canis lupus, UniProt A0A068LEV2); assay: inside-out patch electrophysiology, current block; format: biochemical; conditions: 25 µM; channel block; 25 µM L-cis-diltiazem with 100 µM cGMP, -60 mV, 120 mM NaCl, EDTA/EGTA, pH 7.4, room temperature
T2 construct: gene CNGA3; full-length coding region cloned from canine retina, C-terminal YFP (pEYFP-N1, stop removed), tSA201 cells, homotetramer
T2 sequence (A0A068LEV2 1-708): T1 sequence (A0A068LEV2 1-708)
Description: inside-out patch electrophysiology, current block on cA3

Idil/I [1]: 0.40±0.02
Idil/I [2]: 0.79±0.05
SMILES: COc1ccc([C@H]2Sc3ccccc3N(CCN(C)C)C(=O)[C@H]2OC(C)=O)cc1 [L-cis-diltiazem]
